Key:
Assay in all cases: lentiviral shRNA knockdown of CD320 and LRP2, cell growth observation
Assay type in all cases: cell-based
Set-up in all cases: key: +++: cells unaffected compared to shSCR (control); ++: cells modestly affected compared to shSCR (control); +: cells significantly affected compared to shSCR (control); 0: vast majority of cells killed compared to shSCR (control)
[1] = system: GM05659 fibroblasts; settings: GM05659, normal cells
Text: (§1) Mechanistic investigations into the selectivity of porphyrin uptake by cancer cells led to several nonobvious compounds and methods of using the compound(s). It was discovered that the knockdown of the expression of either CD320 gene or LRP2 gene or the simultaneous knockdown of the expression of CD320 gene and LRP2 gene caused cell death or inhibition of cell growth in a panel of lung cancer cell lines, compared to normal fibroblasts. The experimental outline is illustrated in FIG. 1. In these experiments, cells were plated on day 0. The next day (day 1), virus particles encoding short hairpin RNAs (shRNAs) directed to the CD320 gene and the LRP2 gene or an irrelevant shRNA control were added to the cell culture together with protamine sulfate, a reagent that facilitates cell entry of the virus particles.
(§2) FIG. 1 illustrates an experimental design for knocking down CD320 and LRP2 in a cell. Cells were plated on day 0. The next day (day 1), virus particles encoding short hairpin RNAs (shRNAs) directed at the CD320 and LRP2 mRNA or a non-targeting shRNA control were added to the cell culture together with protamine sulfate, a reagent that facilitates cell entry of the virus particles. […] Each shRNA coding sequence was also combined with a unique drug resistance gene, which would allow for selecting those cells that had taken up the shRNA; cells that had not taken up the shRNA would not survive. On day 2, drug selection was started. On day 3, the cells were harvested and plated in a new dish. Only the cells with a drug resistance gene, i.e., those cells that had taken up shRNA virus particles would survive this re-plating procedure. From day 4 on, each culture was closely observed for cell growth. Cells infected with the non-targeting negative control shRNA continued growing—data not shown.
FIGS. 2 A-C illustrates sensitivity of cancer cell lines to knockdown of CD320 and LRP2. […] The fields of cells in FIG. 2A were counted and quantified and illustrated in FIG. 2B. […]

[2] = system: H157; settings: H157, lung cells
Text: as §1, §2
(§3) The Each vector that carried a shRNA coding sequence also contained a unique drug resistance gene which would allow for selecting those cells that had taken up the shRNA as those cells that had not taken up the shRNA having the unique drug resistance gene would not survive. On day 2, drug selection was started. On day 3, the cells were harvested and plated in a new dish. Only the cells with a drug resistance gene, i.e., those cells that had taken up shRNA virus particles would survive this re-plating procedure. From day 4 on, each culture was closely observed for cell growth. The cells that were infected with the irrelevant control shRNA kept on growing as expected (since the shRNA was essentially a non-functional shRNA)—data not shown.
(§4) Additional cancer cell lines were also treated with the compounds described herein to determine whether cancer cell lines were more susceptible to growth inhibition and toxicity as compared to non-cancer cells of the same origin. Cell lines from skin, prostate, and brain cancers were screened similarly to the experimental outline in FIG. 1. Table 3 summarizes the effects of simultaneous knockdown of CD320 and LRP2 in cancer and normal cells.

[3] = system: HCC15; settings: HCC15, lung cells
Text: as §1, §2, §3, §4

[4] = system: MDA-MB-4353; settings: MDA-MB-4353, melanoma cells
Text: as §1, §2, §3, §4

[5] = system: GM00701; settings: GM00701, normal cells
Text: as §1, §2, §3, §4

[6] = system: U251MG; settings: glioblastoma
Text: as §1, §2, §3, §4

[7] = system: DU-145; settings: DU-145, prostate cells
Text: as §1, §2, §3, §4

[8] = system: PC3; settings: PC3, prostate cells
Text: as §1, §2, §3, §4

[9] = system: H1993; settings: H1993, lung cells
Text: as §1, §2, §3, §4

[10] = system: LncAP; settings: prostate cells
Text: as §1, §2, §3, §4

[11] = system: U343; settings: U343, glioblastoma
Text: as §1, §2, §3, §4

[12] = system: H358; settings: H358, lung cells
Text: as §1, §2, §3, §4

[13] = system: T98G; settings: glioblastoma
Text: as §1, §2, §3, §4

[14] = system: A172; settings: A172, glioblastoma
Text: as §1, §2, §3, §4

Row | Substance | cells affected compared to shSCR (control) [1] | cells affected compared to shSCR (control) [2] | cells affected compared to shSCR (control) [3] | cells affected compared to shSCR (control) [4] | cells affected compared to shSCR (control) [5] | cells affected compared to shSCR (control) [6] | cells affected compared to shSCR (control) [7] | cells affected compared to shSCR (control) [8] | cells affected compared to shSCR (control) [9] | cells affected compared to shSCR (control) [10] | cells affected compared to shSCR (control) [11] | cells affected compared to shSCR (control) [12] | cells affected compared to shSCR (control) [13] | cells affected compared to shSCR (control) [14]
1 | shCD320: lentiviral shRNA targeting CD320 (NM_016579.3), location 1006-1026; SEQ ID NO. 943/944 (sense CCCTCAGAGACCTGAGCTCTT; antisense AAGAGCTCAGGTCTCTGAGGG) [lentiviral shRNA targeting CD320 (NM_016579.3), location 1006-1026; 943/944] | +++ | + | + | ++ | ++ | + | ++ | +++ | ++ | ++ | +++ | ++ | +++ | +
2 | shLRP2: lentiviral shRNA targeting LRP2 (NM_004525.2), location 2800-2820; SEQ ID NO. 945/946 (sense CCTGTAATAAACACTACTCTT; antisense AAGAGTAGTGTTTATTACAGG) [lentiviral shRNA targeting LRP2 (NM_004525.2), location 2800-2820; 945/946] | +++ | ++ | + | + | +++ | ++ | + | ++ | ++ | ++ | ++ | ++ | ++ | +
3 | shSCR: non-targeting control shRNA in lentiviral vector; SEQ ID NO. 941/942 [reference compound] | +++ | +++ | +++ | +++ | +++ | +++ | +++ | +++ | +++ | +++ | +++ | +++ | +++ | +++

Reference: patent US12305171B2, “Compositions and methods for treating cancer” (bioAffinity Technologies, Inc., priority 2018, dated 2025)
